One series relates to 3T3442A cells. It is filed as cell-based. The note with it: one hour at 37EC. As for the experimental part: A PKR peptide antagonist (50 μg) having the sequence […] (SEQ ID NO: 25) comprising a cell permeability subsequence (residues 1-16 of SEQ ID NO:25), a heme agglutinin-epitope tag subsequence (residues 17-25 of SEQ ID NO:25), and a PKR peptide antagonist subsequence (residues 26-46 of SEQ ID NO:25) was radiolabeled with [^125 I]-iodine by the chloramine-T method (Hunter, W. M. and Greenwood, F. C. Nature 194:495-496, 1962) and purified by size exclusion chromatography using BioGel P2 (BioRad, Inc.) 35 million CPM of radiolabeled PKR peptide was added to pre-confluent cultures of 3T3442A cells grown in medium containing 10% FBS. After 1 hour at 37° C., the media was aspirated and the cells were washed four times in phosphate buffered saline (PBS). Cells were removed from the culture dishes by scraping and collected by centrifugation (4EC, 750×g, 5 min). The wash buffer was removed and the cell pellet was dissolved in SDS-polyacrylamide gel buffer (Laemmli, Nature (London), 227:680-685, 1970). The sample was analyzed by SDS-tricine polyacrylamide gel electrophoresis using 4-20% gradient tricine-SDS gels and the radiolabeled peptide antagonist was visualized by autoradiography of dried gels. […]
The subcellular localization of the PKR peptide antagonist (SEQ ID NO:25) that had been internalized by 3T3442A cells was determined by confocal microscopy. […]

In series [1] the target is T1, PKR (dsRNA-dependent protein kinase) (Oryctolagus cuniculus) (UniProt Q287T5).
T1 sequence: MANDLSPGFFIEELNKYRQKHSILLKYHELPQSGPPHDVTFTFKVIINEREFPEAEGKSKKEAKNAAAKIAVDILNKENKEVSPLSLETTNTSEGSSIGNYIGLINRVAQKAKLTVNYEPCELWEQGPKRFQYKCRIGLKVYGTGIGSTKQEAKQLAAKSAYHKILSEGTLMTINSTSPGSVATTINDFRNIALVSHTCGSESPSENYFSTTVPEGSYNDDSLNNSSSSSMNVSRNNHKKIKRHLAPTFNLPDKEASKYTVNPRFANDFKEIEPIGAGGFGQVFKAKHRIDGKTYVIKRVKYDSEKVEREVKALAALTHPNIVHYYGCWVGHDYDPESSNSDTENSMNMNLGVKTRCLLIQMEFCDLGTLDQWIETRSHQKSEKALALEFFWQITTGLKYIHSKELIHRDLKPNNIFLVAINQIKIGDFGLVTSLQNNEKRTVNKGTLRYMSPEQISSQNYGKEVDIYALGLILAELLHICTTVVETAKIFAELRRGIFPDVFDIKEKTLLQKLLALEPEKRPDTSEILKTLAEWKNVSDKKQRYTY
Nature of the series: competition. The note with it: unlabeled poly(I)-poly(C) 80 ug/ml as competitor to TAR RNA.

Ends that are not written are not given here.

Consider “AAVALLPAVLLALLAPYPYDVPDYAKKEAKNAAAKLAVEILNKEKK [SEQ ID NO:25]”, for which the “subcellular localization of internalized peptide (confocal microscopy, anti-HA)” value with 3T3442A cells is reported as “obvious, intense localization of the epitope-tagged peptide to the cell cytoplasm”.

The substance poly(I)-poly(C) displayed a binding signal (% inhibition of TAR complex) in series [1] of 60.

Source of the values: patent publication US6326466A, “Double-stranded RNA dependent protein kinase derived peptides to promote proliferation of cells and tissues in a controlled manner” (priority 1999, dated 2001).
